Experimental data as given in patent US7459441B2, “Remedies for dry eye and diseases associated with dry eye” (Senju Pharmaceutical Co., Ltd., priority 2001, dated 2008).
Where no end group is shown, it is not given here.

Experiments:
isolated lacrimal gland = experiment: Promotion of protein secretion from isolated lacrimal gland; design: species or system rabbit; settings: 10^-4 M, treating time 0 to 40 minutes, n=5, Dunnett's test (FIG. 1)
Method: An isolated lacimal gland of a rabbit was treated with VIP, or Peptide 5 or 15, and the pharmacological effect of these peptides on increase in an amount of secreted protein was studied.
a) Purified water was added to sodium chloride (137.92 g), potassium chloride (7.01 g), calcium chloride-dihydrate (3.53 g) and magnesium chloride.hexahydrate (1.2 g) and the mixture was made up to a total volume of 1000 mL (Solution 1). Separately, purified water was added to potassium dihydrogen phosphate (8.17 g) and the mixture was made up to a total volume of 500 mL (Solution 2). Solution 1 (50 mL) and Solution 2 (10 mL) were added to 900 mL of purified water, 2.07 g of glucose and 2.1 g of […] were dissolved therein, a total amount was adjusted to 1000 mL (pH about 7.4) to obtain an incubation medium. The incubation medium was bubbled with mixed gas containing 95% oxygen and 5% carbon dioxide.
b) VIP, Peptide 5 or Peptide 15 was dissolved in the incubation medium at a concentration of 10^−4 M to obtain a test solution. […]
a) The piece specimen in the steady state was used, the incubation medium was exchanged with 0.5 mL of a fresh incubation medium, followed by incubation at 37° C. for 20 minutes. This incubation medium was collected, a protein staining reagent (DC Protein assay reagent, Bio Rad) was added thereto, and an amount of protein was measured and expressed as an amount of secreted protein per mg of wet weight. […]
b) The incubation medium of the piece specimen after incubation in a) was exchanged with 0.5 mL of a test solution, and the solution was exchanged and collected at 20 minutes intervals totally five times. A protein staining reagent was added to the collected solution, and an amount of protein was measured. For a piece specimen in a control group, the incubation medium was exchanged similarly, and an amount of protein was measured.

[1] = system: eyes of a Japanese white rabbit; experiment: Lacrimal secretion promotion activity of eye drops (1), Schirmer test; type: in vivo; settings: for Amount of lacrimal secretion (Schirmer's value), After administration: 10 minutes after single 50 μL application; for Amount of lacrimal secretion (Schirmer's value), After administration / amount of lacrimal secretion after vs before application (paired t test): Peptide 5 0.1 w/v %, Peptide 15 2.0 w/v %; for Amount of lacrimal secretion (Schirmer's value), After administration / Amount of lacrimal secretion (Schirmer's value), Before administration: n = 6, mean ± standard error; for Amount of lacrimal secretion (Schirmer's value), Before administration: baseline before single 50 μL application to eyes; for amount of lacrimal secretion after vs before application (paired t test): single application to eyes
Method: Peptide 5 or 15 was applied to eyes of a rabbit, and an amount of secreted tears was measured, whereby, the pharmacological effect of these peptides on increase in an amount of lacrimal secretion was studied.
Purified water was added to sodium chloride (0.9 g) and sodium dihydrogen phosphate.dihydrate (0.1 g) to make up to a total volume of 100 mL. Further, an appropriate amount of aqueous sodium hydroxide solution was added so as to adjust pH to 7.0 to obtain a vehicle. Peptide 5 was dissolved in the vehicle at a concentration of 0.1 w/v %, and Peptide 15 was dissolved in the vehicle at a concentration of 2.0 w/v %, to prepare test solutions.
Measurement of an amount of tears was performed by a Schirmer test. To eyes of a Japanese white rabbit, 50 μL of a test solution was applied once, and amounts of lacrimal secretion before and 10 minutes after the application to eyes were measured. Five minutes before measurement of an amount of tears, 10 μL of 0.4 w/v % oxybuprocaine hydrochloride (Anelocal™ eye drops, Senju Pharmaceutical Co., Ltd.) was dropped to topically anesthetize. After tears in palpebra interior conjunctival sac were wiped out using a filter paper, and an amount of lacrimal secretion for 1 minute was measured using a Schirmer test paper (Showa Yakuhin Kako Co., Ltd.).

[2] = Digestion test with bronchoalveolar lavage fluid (BALF); type: in vitro ADME; settings: rat BALF, 90 minutes; for remaining at 1.5 h, 0.1 mg/mL: male, SD, bronchoalveolar lavage fluid (BALF), pH 7.4, 37° C., read-out: remaining rate (undegraded peptide by HPLC)
Method: The effect of highly basified Peptide 5 on digestion with bronchoalveolar lavage fluid was studied.
VIP and Peptide 5 were dissolved (1.1 mg/mL) in a 0.2% Tris-HCl buffer (pH 7.4), and bronchoalveolar lavage fluid (BALF) was added thereto. BALF was obtained by pouring 5 mL of a physiological saline into a trachea of a 8 to 9 week old normal SD male rat (about 350 g) under anesthesia, and recovering the saline, and repeating this procedure totally three times. To 0.5 mL of BALF was added 0.05 mL of a sample solution and the mixture was reacted at 37° C. for 90 minutes, and thereafter an amount of undegraded peptide was measured by HPLC.

[3] = system: eyes of a Japanese white rabbit; experiment: Lacrimal secretion promotion activity of eye drops (2), Schirmer test with time; type: in vivo; settings: for AUC0-120 min, accumulated value of increment of amount of lacrimal secretion after application / increment of amount of lacrimal secretion vs control group / AUC value compared with control group (significance): 0.1 w/v %; for AUC0-120 min, accumulated value of increment of amount of lacrimal secretion after application: 50 μL once to eyes, n = 8, average ± standard error; for increment of amount of lacrimal secretion vs control group: 10 minutes after the administration, n=8 (FIG. 2); for AUC value compared with control group (significance): 120 minutes after the administration, Dunnett-type multiple comparison test
Method: In the same manner as that of Test Example 4, Peptide 5 was applied, and an amount of lacrimal secretion was measured. In this test, an amount of lacrimal secretion was measured with time, and the effect was compared with that of VIP.
Preparation of a solution was performed in the same manner as that of Test Example 4, and VIP and Peptide 5 were dissolved in the vehicle at a concentration of 0.1 w/v %, to prepare a test solution.
[…] Measurement of an amount of lacrimal secretion was performed in the same manner as that of Test Example 4.

[4] = Trypsin digestion test in the presence of chondroitin sulfate; type: in vitro ADME; settings: 0.5 mU trypsin, pH 7.5, 37° C., 180 minutes, read-out: remaining rate (undegraded peptide by HPLC)
Method: The effect of highly basified Peptide 5 on digestion with trypsin was studied in the presence of chondroitin sulfate.
To 100 μL of a solution of VIP and Peptide 5 (1 mg/mL) was added 400 μL of a solution of chondroitin sulfate (pH 7.5, 100 μg/mL) in a 0.2 M Tris-HCl buffer (pH 7.5). To 100 μL of this solution was added 0.5 mU of trypsin and the mixture was incubated at 37° C. for 180 minutes. Then, an amount of an undegraded peptide was measured by HPLC.

Row | remaining rate as compared with VIP [2] | Molecule | rate of protein secretion from isolated lacrimal gland vs control group (isolated lacrimal gland) | Amount of lacrimal secretion (Schirmer's value), After administration [1] [mm/min] | Amount of lacrimal secretion (Schirmer's value), Before administration [1] [mm/min] | amount of lacrimal secretion after vs before application (paired t test) [1] | remaining at 1.5 h, 0.1 mg/mL [2] [%] | AUC0-120 min, accumulated value of increment of amount of lacrimal secretion after application [3] | increment of amount of lacrimal secretion vs control group [3] | AUC value compared with control group (significance) [3] | remaining at 3 h, 0.2 mg/mL [4] [%] | duration of lacrimal secretion promoting activity compared with VIP ([3]; application to eyes)
1 | – | Peptide 15: VIP derivative of formula (I): X1 Lys, X2 Leu, X3 Lys, X4 Lys, X5 chemical bond, X6 -NH2 (HSDAVFTDNYTRLRKQLAVKKYL-NH2) | significantly increased | 7.75 ± 2.16 | 3.25 ± 1.20 | tendency of increase | – | – | – | – | – | –
2 | – | CC[C@H](C)[C@H](NC(=O)[C@H](CO)NC(=O)[C@H](CC(N)=O)NC(=O)[C@H](CC(C)C)NC(=O)[C@H](Cc1ccc(O)cc1)NC(=O)[C@H](CCCCN)NC(=O)[C@H](CCCCN)NC(=O)[C@@H](NC(=O)[C@H](C)NC(=O)[C@H](CCSC)NC(=O)[C@H](CCC(N)=O)NC(=O)[C@H](CCCCN)NC(=O)[C@H](CCCNC(=N)N)NC(=O)[C@H](CC(C)C)NC(=O)[C@H](CCCNC(=N)N)NC(=O)[C@@H](NC(=O)[C@H](Cc1ccc(O)cc1)NC(=O)[C@H](CC(N)=O)NC(=O)[C@H](CC(=O)O)NC(=O)[C@@H](NC(=O)[C@H](Cc1ccccc1)NC(=O)[C@@H](NC(=O)[C@H](C)NC(=O)[C@H](CC(=O)O)NC(=O)[C@H](CO)NC(=O)[C@@H](N)Cc1c[nH]cn1)C(C)C)[C@@H](C)O)[C@@H](C)O)C(C)C)C(=O)N[C@@H](CC(C)C)C(=O)N[C@@H](CC(N)=O)C(N)=O [VIP, Vasoactive Intestinal Peptide, reference compound] | significantly increased | – | – | – | 45.5 | 215.0 ± 98.2 ΔSchirmer's value × min. | significantly increased | a significant difference is not recognized | 75 | –
3 | about 1.8 fold | HSDAVFTDNYTRLRRQLAVRRYLNSILNGRR-NH2 [Peptide 5] | significantly increased | 8.92 ± 0.45 | 2.00 ± 0.62 | significantly increased | 80 | 359.2 ± 85.0 ΔSchirmer's value × min. | significantly increased | significantly higher value | 89 | longer-lasting
